Laboratory results published in US9732119B2, “Immunomodulators” (BRISTOL-MYERS SQUIBB COMPANY, priority 2014, dated 2017).
pIC50: −log10 of the molar value. Positions of bridges follow the written chain, without caps; N, C: chain ends. Non-standard residues stand in square brackets, D forms with d. Residues, ends and D or L forms follow the SMILES beside them. Trp(1-CH2COOH) = N[C@@H](Cc1cn(CC(=O)O)c2ccccc12)C(=O)O; Phe(4-Cl) = N[C@@H](Cc1ccc(Cl)cc1)C(=O)O; Phe(4-Me) = Cc1ccc(C[C@H](N)C(=O)O)cc1; Hyp = O=C(O)[C@@H]1C[C@@H](O)CN1; Aad = N[C@@H](CCCC(=O)O)C(=O)O; NMeNle = CCCC[C@H](NC)C(=O)O; Pip = O=C(O)[C@@H]1CCCCN1; NMeA = CN[C@@H](C)C(=O)O; Orn = NCCC[C@H](N)C(=O)O; Dab = NCC[C@H](N)C(=O)O; Dap = NC[C@H](N)C(=O)O

molecular target: T1, PD-1-Ig binding to PD-L1-TVMV-His (PD-L1-His) (Homo sapiens, UniProt Q9NZQ7); experiment: PD-1/PD-L1 Homogenous Time-Resolved Fluorescence (HTRF) binding assay; conditions: PD-1-Ig (20 nM) / PD-L1-His (10 nM); range classes
T1 construct: hPDL1(19-239)-TVMV-His; made in house; host or cells: HEK293T cells
T1 sequence (Q9NZQ7 with tags, fused parts or gaps): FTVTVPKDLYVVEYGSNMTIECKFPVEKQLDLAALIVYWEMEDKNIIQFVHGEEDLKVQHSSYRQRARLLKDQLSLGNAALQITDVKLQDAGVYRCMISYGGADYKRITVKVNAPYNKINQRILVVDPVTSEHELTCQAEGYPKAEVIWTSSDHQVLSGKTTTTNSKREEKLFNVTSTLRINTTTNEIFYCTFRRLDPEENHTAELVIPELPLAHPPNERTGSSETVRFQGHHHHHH
Summary of the method: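 In dPBS with 0.1% BSA and 0.05% Tween-20, inhibitors were preincubated 15 min with 10 nM PD-L1-His before 20 nM PD-1-Ig was added for another 15 min. Binding read by time-resolved FRET between Eu-cryptate anti-Ig (1 nM) and APC anti-His (20 nM).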

**Q.** How did the pIC50 turn out when CCCC[C@H]1C(=O)N(C)[C@@H](CCCC)C(=O)N[C@@H](CC(C)C)C(=O)N[C@H](C(=O)NCC(N)=O)CCNCC(=O)N[C@@H](Cc2ccc(O)cc2)C(=O)N(C)[C@@H](C)C(=O)N[C@@H](CC(N)=O)C(=O)N2CCC[C@H]2C(=O)N[C@@H](Cc2cnc[nH]2)C(=O)N[C@@H](CCC(N)=O)C(=O)N2C[C@H](O)C[C@H]2C(=O)N[C@@H](Cc2c[nH]c3ccccc23)C(=O)NCC(=O)N[C@@H](Cc2cn(CC(=O)O)c3ccccc23)C(=O)N1C [Example 10021] was run?
**A.** The pIC50 was 7.00 to 8.00.

**Q.** CCCC[C@H]1C(=O)N(C)[C@@H](CCCC)C(=O)N[C@@H](CC(C)C)C(=O)N[C@H](C(N)=O)CNCC(=O)N[C@@H](Cc2ccc(O)cc2)C(=O)N2CCCC[C@H]2C(=O)N[C@@H](CC(N)=O)C(=O)N2CCC[C@H]2C(=O)N[C@@H](CCC(N)=O)C(=O)N[C@@H](CCC(N)=O)C(=O)N2C[C@H](O)C[C@H]2C(=O)N[C@@H](Cc2c[nH]c3ccccc23)C(=O)N[C@@H](CC(N)=O)C(=O)N[C@@H](Cc2cn(CC(=O)O)c3ccccc23)C(=O)N1C [Example 9029] was tested. Which pIC50 did it give?
**A.** The pIC50 was 8.00 to 9.00.

**Q.** With CCCC[C@H]1C(=O)N(C)[C@@H](CCCC)C(=O)N[C@@H](CC(C)C)C(=O)N[C@H](C(=O)NCC(N)=O)CNCC(=O)N[C@@H](Cc2ccc(OC)cc2)C(=O)N(C)[C@@H](C)C(=O)N[C@@H](CC(N)=O)C(=O)N2CCC[C@H]2C(=O)N[C@@H](CN)C(=O)N[C@@H](CCC(=O)O)C(=O)N2C[C@H](O)C[C@H]2C(=O)N[C@@H](Cc2c[nH]c3ccccc23)C(=O)N[C@@H](CCN)C(=O)N[C@@H](Cc2cn(CC(=O)O)c3ccccc23)C(=O)N1C [Example 1041] as the compound, how does the pIC50 read?
**A.** The pIC50 was 8.00 to 9.00.

**Q.** CCCC[C@H]1C(=O)N(C)[C@@H](CCCC)C(=O)N[C@@H](CCC(=O)O)C(=O)N[C@H](C(N)=O)CCCC(=O)N[C@@H](Cc2ccc(OC)cc2)C(=O)N2CCCC[C@H]2C(=O)N[C@@H](CC(N)=O)C(=O)N2CCC[C@H]2C(=O)N[C@@H](CN)C(=O)N[C@@H](CC(C)C)C(=O)N2C[C@H](O)C[C@H]2C(=O)N[C@@H](Cc2c[nH]c3ccccc23)C(=O)N[C@@H](CCN)C(=O)N[C@@H](Cc2cn(CC(=O)O)c3ccccc23)C(=O)N1C [Example 10563] (Y(Me)[Pip]NP[Dap]L[Hyp]W[Dab][Trp(1-CH2COOH)][NMeNle][NMeNle]E[Aad]-NH2; lactam N-14) was tested. Which pIC50 did it give?
**A.** The pIC50 was 8.00 to 9.00.

**Q.** With CCCC[C@H]1C(=O)N(C)[C@@H](CCCC)C(=O)N[C@@H](CC(C)C)C(=O)N[C@H](C(N)=O)CCCC(=O)N[C@@H](Cc2ccc(C)cc2)C(=O)N2CCCC[C@H]2C(=O)N[C@@H](CC(=O)O)C(=O)N2CCC[C@H]2C(=O)N[C@@H](CN)C(=O)N[C@@H](CC(C)C)C(=O)N2C[C@H](O)C[C@H]2C(=O)N[C@@H](Cc2c[nH]c3ccccc23)C(=O)N[C@@H](CCN)C(=O)N[C@@H](Cc2cn(CC(=O)O)c3ccccc23)C(=O)N1C [Example 10553] ([Phe(4-Me)][Pip]DP[Dap]L[Hyp]W[Dab][Trp(1-CH2COOH)][NMeNle][NMeNle]L[Aad]-NH2; lactam N-14) as the compound, how does the pIC50 read?
**A.** Its pIC50 is 7.00 to 8.00.

**Q.** How did the pIC50 turn out when CCCC[C@H]1C(=O)N(C)[C@@H](CCCC)C(=O)N[C@@H](CC(C)C)C(=O)N[C@H](C(=O)NCC(N)=O)CCCNCC(=O)N[C@@H](Cc2ccccc2)C(=O)N(C)[C@@H](C)C(=O)N[C@@H](CC(C)C)C(=O)N2CCC[C@H]2C(=O)N[C@@H](CC(C)C)C(=O)N[C@@H](CC(C)C)C(=O)N2CCC[C@H]2C(=O)N[C@@H](Cc2c[nH]c3ccccc23)C(=O)N[C@@H](CC(C)C)C(=O)N[C@@H](Cc2c[nH]c3ccccc23)C(=O)N1C [Example 10010] was run?
**A.** Its pIC50 is 5.00 to 7.00.

**Q.** How did the pIC50 turn out when CCCC[C@H]1C(=O)N(C)[C@@H](CCCC)C(=O)N[C@@H](CC(C)C)C(=O)N[C@H](C(N)=O)CNCC(=O)N[C@@H](Cc2ccc(O)cc2)C(=O)N2CCCC[C@H]2C(=O)N[C@@H](CC(N)=O)C(=O)N2CCC[C@H]2C(=O)N[C@@H](CCC(N)=O)C(=O)N[C@@H](CC(=O)O)C(=O)N2C[C@H](O)C[C@H]2C(=O)N[C@@H](Cc2c[nH]c3ccccc23)C(=O)N[C@@H](CC(N)=O)C(=O)N[C@@H](Cc2cn(CC(=O)O)c3ccccc23)C(=O)N1C [Example 9027] was run?
**A.** Its pIC50 is 8.00 to 9.00.

**Q.** CCCC[C@H]1C(=O)N(C)[C@@H](CCCC)C(=O)N[C@@H](CCC(=O)O)C(=O)N[C@H](C(N)=O)CNCC(=O)N[C@@H](Cc2ccc(F)cc2)C(=O)N2CCCC[C@H]2C(=O)N[C@@H](CC(N)=O)C(=O)N2CCC[C@H]2C(=O)N[C@@H](CCC(N)=O)C(=O)N[C@@H](CCC(N)=O)C(=O)N2C[C@H](O)C[C@H]2C(=O)N[C@@H](Cc2c[nH]c3ccccc23)C(=O)N[C@@H](CC(N)=O)C(=O)N[C@@H](Cc2cn(CC(=O)O)c3ccccc23)C(=O)N1C [Example 9048] was tested. Which pIC50 did it give?
**A.** The pIC50 was 8.00 to 9.00.

**Q.** CCCC[C@H]1C(=O)N(C)[C@@H](CCCC)C(=O)N[C@@H](CC(C)C)C(=O)N[C@H](C(=O)NCC(N)=O)CNCC(=O)N[C@@H](Cc2ccc(O)cc2)C(=O)N(C)[C@@H](C)C(=O)N[C@@H](CC(N)=O)C(=O)N2CCC[C@H]2C(=O)N[C@@H](Cc2cnc[nH]2)C(=O)N[C@@H](CC(C)C)C(=O)N2C[C@H](O)C[C@H]2C(=O)N[C@@H](Cc2c[nH]c3ccccc23)C(=O)N[C@@H](CO)C(=O)N[C@@H](Cc2cn(CC(=O)O)c3ccccc23)C(=O)N1C [Example 10007] was tested. Which pIC50 did it give?
**A.** The pIC50 was 8.00 to 9.00.

**Q.** How did the pIC50 turn out when CCCC[C@H]1C(=O)N(C)[C@@H](CCCC)C(=O)N[C@@H](CCC(=O)O)C(=O)N[C@H](C(=O)NCC(N)=O)CNCC(=O)N[C@@H](Cc2ccc(F)cc2)C(=O)N(C)[C@@H](C)C(=O)N[C@@H](CC(N)=O)C(=O)N2CCC[C@H]2C(=O)N[C@@H](CCC(N)=O)C(=O)N[C@@H](CC(C)C)C(=O)N2C[C@H](O)C[C@H]2C(=O)N[C@@H](Cc2c[nH]c3ccccc23)C(=O)N[C@@H](CC(N)=O)C(=O)N[C@@H](Cc2cn(CC(=O)O)c3ccccc23)C(=O)N1C [Example 9022] was run?
**A.** The pIC50 was 7.00 to 8.00.

**Q.** CCCC[C@H]1C(=O)N(C)[C@@H](CCCC)C(=O)N[C@@H](CC(C)C)C(=O)NCCC[C@H](N)C(=O)N[C@@H](Cc2ccc(OC)cc2)C(=O)N2CCCC[C@H]2C(=O)N[C@@H](CC(N)=O)C(=O)N2CCC[C@H]2C(=O)N[C@@H](CN)C(=O)N[C@@H](CCC(=O)O)C(=O)N2C[C@H](O)C[C@H]2C(=O)N[C@@H](Cc2c[nH]c3ccccc23)C(=O)N[C@@H](CCN)C(=O)N[C@@H](Cc2cn(CC(=O)O)c3ccccc23)C(=O)N1C [Example 10551] (H-[Orn]Y(Me)[Pip]NP[Dap]E[Hyp]W[Dab][Trp(1-CH2COOH)][NMeNle][NMeNle]L; lactam 1-C) was tested. Which pIC50 did it give?
**A.** The pIC50 was 8.00 to 9.00.

**Q.** How did the pIC50 turn out when CCCC[C@H]1C(=O)N(C)[C@@H](CCCC)C(=O)N[C@@H](CC(C)C)C(=O)N[C@H](C)C(=O)NCC(=O)N[C@@H](Cc2ccc(O)cc2)C(=O)N(C)[C@@H](C)C(=O)N[C@@H](CC(N)=O)C(=O)N2CCC[C@H]2C(=O)N[C@@H](CN)C(=O)N[C@@H](CC(C)C)C(=O)N2C[C@H](O)C[C@H]2C(=O)N[C@@H](Cc2c[nH]c3ccccc23)C(=O)N[C@@H](CCN)C(=O)N[C@@H](Cc2c[nH]c3ccccc23)C(=O)N1C [Example 5007] (cyclo([Dab]W[NMeNle][NMeNle]L[dA]GY[NMeA]NP[Dap]L[Hyp]W)) was run?
**A.** Its pIC50 is 8.00 to 9.00.

**Q.** CCCC[C@H]1C(=O)N(C)[C@@H](CCCC)C(=O)N[C@@H](CC(C)C)C(=O)N[C@H](C(N)=O)CCCC(=O)N[C@@H](Cc2ccc(Cl)cc2)C(=O)N2CCCC[C@H]2C(=O)N[C@@H](CC(N)=O)C(=O)N2CCC[C@H]2C(=O)N[C@@H](CN)C(=O)N[C@@H](CC(C)C)C(=O)N2C[C@H](O)C[C@H]2C(=O)N[C@@H](Cc2c[nH]c3ccccc23)C(=O)N[C@@H](CCN)C(=O)N[C@@H](Cc2cn(CC(=O)O)c3ccccc23)C(=O)N1C [Example 10534] ([Phe(4-Cl)][Pip]NP[Dap]L[Hyp]W[Dab][Trp(1-CH2COOH)][NMeNle][NMeNle]L[Aad]-NH2; lactam N-14) was tested. Which pIC50 did it give?
**A.** The pIC50 was 8.00 to 9.00.

**Q.** With CCCC[C@H]1C(=O)N(C)[C@@H](CCCC)C(=O)N[C@@H](CC(C)C)C(=O)N[C@H](C(N)=O)CNCC(=O)N[C@@H](Cc2ccc(O)cc2)C(=O)N2CCCC[C@H]2C(=O)N[C@@H](CC(=O)O)C(=O)N2CCC[C@H]2C(=O)N[C@@H](CCC(N)=O)C(=O)N[C@@H](CC(C)C)C(=O)N2C[C@H](O)C[C@H]2C(=O)N[C@@H](Cc2c[nH]c3ccccc23)C(=O)N[C@@H](CC(N)=O)C(=O)N[C@@H](Cc2cn(CC(=O)O)c3ccccc23)C(=O)N1C [Example 9034] as the compound, how does the pIC50 read?
**A.** The pIC50 was 8.00 to 9.00.

**Q.** CCCC[C@H]1C(=O)N(C)[C@@H](CCCC)C(=O)N[C@@H](CC(C)C)C(=O)N[C@H](C(N)=O)CNCC(=O)N[C@@H](Cc2ccc(O)cc2)C(=O)N2CCCC[C@H]2C(=O)N[C@@H](CC(=O)O)C(=O)N2CCC[C@H]2C(=O)N[C@@H](CCC(N)=O)C(=O)N[C@@H](CCC(N)=O)C(=O)N2C[C@H](O)C[C@H]2C(=O)N[C@@H](Cc2c[nH]c3ccccc23)C(=O)N[C@@H](CC(N)=O)C(=O)N[C@@H](Cc2cn(CC(=O)O)c3ccccc23)C(=O)N1C [Example 9037] was tested. Which pIC50 did it give?
**A.** The pIC50 was 8.00 to 9.00.

**Q.** CCCC[C@H]1C(=O)N(C)[C@@H](CCCC)C(=O)N[C@@H](C)C(=O)N[C@H](C(=O)NCC(N)=O)CCNCC(=O)N[C@@H](Cc2ccc(O)cc2)C(=O)N(C)[C@@H](C)C(=O)N[C@@H](CC(=O)O)C(=O)N2CCC[C@H]2C(=O)N[C@@H](Cc2cnc[nH]2)C(=O)N[C@@H](CCC(N)=O)C(=O)N2C[C@H](O)C[C@H]2C(=O)N[C@@H](Cc2c[nH]c3ccccc23)C(=O)N[C@@H](CO)C(=O)N[C@@H](Cc2cn(CC(=O)O)c3ccccc23)C(=O)N1C [Example 10015] was tested. Which pIC50 did it give?
**A.** Its pIC50 is 8.00 to 9.00.

**Q.** How did the pIC50 turn out when CCCC[C@H]1C(=O)N(C)[C@@H](CCCC)C(=O)N[C@@H](CC(C)C)C(=O)N[C@H](C(=O)NCC(N)=O)CCCNCC(=O)N[C@@H](Cc2ccc(O)cc2)C(=O)N(C)[C@@H](C)C(=O)N[C@@H](CC(N)=O)C(=O)N2CCC[C@H]2C(=O)N[C@@H](Cc2cnc[nH]2)C(=O)N[C@@H](CCC(N)=O)C(=O)N2C[C@H](O)C[C@H]2C(=O)N[C@@H](Cc2c[nH]c3ccccc23)C(=O)NCC(=O)N[C@@H](Cc2cn(CC(=O)O)c3ccccc23)C(=O)N1C [Example 10022] was run?
**A.** The pIC50 was 7.00 to 8.00.
